Experimental data from publication PMC11079029, “Intramolecular autoinhibition regulates the selectivity of PRPF40A tandem WW domains for proline-rich motifs” (Nature Communications, 2024).
Like-named read-outs stand apart in the source and are kept apart here. No end group written: not given here.

Assays:
[1] = system: GFP-tagged PRPF40A-Nter-MUT; assay: SILAC GFP-immunoprecipitation with quantitative mass spectrometry, mutant construct; assay type: binding, human (Hela cells); settings: quantitative MS, Hela cells, protein by gene name
Protocol: The PRPF40A N-terminal region (isoform 2, residues 1-221) was PCR-amplified from RPE1 cDNA (ATCC, Cat# CRL-4000) cDNA. The sequence was amplified in two fragments and both fragments were combined by overhang. All PCRs were carried out using Q5 Polymerase (NEB) according to manufacturer’s protocol. The resulting PRPF40A N-terminal region was cloned into a GFP-expressing pcDNA5 vector (see pcDNA5 GFP vector in ref. [28]) using Q5 Site-Directed Mutagenesis Kit (NEB). Nter-MUT, containing the PPVP/PALPP motifs changed to AAAA/AAAAA, was obtained by mutating the N-ter-WW12-containing plasmid with Q5 site-directed mutagenesis. Plasmids were transformed into DH5alpha chemically competent cells. After culturing, DNA isolation was performed with either ZymoPURE Plasmid Miniprep Kit (Zymo Research) or QIAGEN Plasmid Plus Midi Kit (Qiagen). The sequence was confirmed by Sanger Sequencing (GATC Eurofins). All used oligonucleotides are shown in Supplementary Table 6.
Hela cells (ATCC, Cat# CCL-2, RRID:CVCL_0030) were cultured in DMEM SILAC medium (Thermo Fisher) supplemented with 10% filtered FBS (Sigma-Aldrich) and 1% penicillin-streptomycin (Thermo-Fisher). The SILAC medium contains either light (Arg0, Lys0), medium (Arg6, Lys4) or heavy (Arg10, Lys8) isotopes (Cambridge Isotopes Laboratories). Hela cells were cultivated for 14 days in SILAC medium to assure sufficient isotope incorporation. For transfection, 7 × 10^6 Hela cells were seeded in a 15 cm culture dish in 20 ml of respective SILAC medium and grown for 24 h. The cells were then transfected with 20 µg of plasmids expressing either GFP (Control), GFP-tagged N-ext-WW12 or GFP-tagged-N-ext-WW12-MUT utilizing 64 µl FuGENE (Promega) (ratio 1:3.2), according to manufacturer’s protocol.
24 h post-transfection, cells were washed twice in ice-cold PBS and harvested in 1 ml mRIPA buffer (50 mM Tris, 150 mM NaCl, 1 mM EDTA, 1% NP-40, 0.1% Na-deoxycholate), supplemented with 2 µl Turbo-DNase (Thermo Fisher) and 3 µl protease-inhibitor cocktail cOmplete (Sigma-Aldrich). Cell lysates were cleared by centrifugation at 16,000 × g, 4 °C, 15 min and concentration was measured using Pierce BCA Protein Assay kit (Thermo Scientific). The expressed constructs were pulled down by incubating 2.5 mg of lysate with 20 μl GFP-nanobody agarose beads (ChromoTek, GTA-20) for 1 h at 4 °C under constant agitation. Subsequently, beads were washed three times with mRIPA buffer without supplements, then eluted in 1X NuPAGE LDS sample buffer (Thermo Scientific). To detach the proteins from the beads, the eluate was heated to 70 °C for 10 min To evaluate the success of the immunoprecipitation, input (1%) and IP samples were analyzed on a NuPAGE 4–12% Bis-Tris-Acrylamide gel (Thermo Fisher) using NuPAGE MOPS SDS running buffer (Thermo Fisher). Proteins were stained using Sypro Ruby protein gel stain (Thermo Fisher) according to manufacturer’s protocol.
The eluted proteins of three SILAC states (light, medium, heavy) were combined. The proteins were then reduced in DTT, alkylated in iodoacetamide, and purified using the SP3 paramagnetic bead approach. This was followed by overnight enzymatic digestion using trypsin (1 µg per sample) in 50 mM ammonium bicarbonate at 37 °C. The peptide solution was then purified by solid phase extraction in C18 StageTips[99].
Peptides were separated by online reverse phase liquid chromatography using the EASY-nLC 1000 system (Thermo Scientific) in a 30-cm analytical column (inner diameter: 75 μm; heated at 50 °C) packed in-house with ReproSil-Pur 120 C18-AQ 1.9-μm beads (Dr. Maisch GmbH). The gradient separation was performed through a 105-min non-linear gradient of 1.6–32% acetonitrile with 0.1% formic acid at a nanoflow rate of 225 nl/min. The eluted peptides were sprayed directly by electrospray ionization into a Q Exactive Plus Orbitrap mass spectrometer (Thermo Scientific). […]

[2] = system: PRPF40A N-ext-WW12; assay: NMR titration (1H-15N and 1H-13C HSQC) of N-ext-WW12 with SF1 peptides; assay type: binding, human; settings: NMR titration of N-ext-WW12, ratios 1:1 up to 1:4
Protocol: NMR samples were prepared at concentrations ranging 100–1000 μM in buffer containing 20 mM sodium phosphate pH 6.5, 100 mM NaCl, 1 mM DTT, and 10% or 100% D2O, and measured at 25 °C (except stated otherwise) in 900-, 800-, 600- and 500-MHz Bruker Avance III NMR spectrometers equipped with cryogenic triple resonance gradient probes. Topspin 4.1.0 (Bruker) software was used for NMR data acquisition. Spectra were processed with NMRpipe 8.9[76] and analyzed using ccpnNMR Analysis 2.5 software.
^15N-labeled PRPF40A proteins (WW1, WW2, WW12, and N-extWW12) at around 100 μM concentration were titrated with increasing concentration ratios of polyproline or SF1 peptides (GB1 tagged) until reaching saturation, when possible; ^1H-^15N HSQC experiments and in some cases ^1H-^13C HSQC experiments (using double-labeled PRPF40A proteins) were acquired at each titration point. The chemical shift perturbation (CSP) was weighted using the Eqs. (1) and (2)[89].1 CSP(HN)=0.5⋅ΔδH2+0.14⋅ΔδN2 2 CSP(HC)=0.5⋅ΔδH2+0.3⋅ΔδC2

[3] = target: T1, PRPF40A WW12 (tandem WW domains, residues 141–236) (Homo sapiens, UniProt O75400); assay: ITC of PRPF40A WW12 with GB1-tagged proline-rich peptides and constructs; assay type: binding; settings: for N (sites): ITC as E1, peptide in the cell, N >1 = more than one WW tandem per peptide; for DH: ITC binding enthalpy; for Kd: ITC
T1 construct: WW12 141–236, WW12long 141–248, and N-ext-WW12 56–236; 6xHis-TEV site (N, cleaved yes); made in house; host or cells: Escherichia coli BL21(DE3)
T1 sequence (O75400 141-236): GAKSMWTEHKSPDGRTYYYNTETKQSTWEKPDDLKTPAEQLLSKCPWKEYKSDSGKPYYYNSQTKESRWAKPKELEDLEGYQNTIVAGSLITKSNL
From the text: PRPF40A isoform 1 sequences (N-ter 1–310, WW12short 141–223, WW12 141–236, WW12long 141–248, and N-ext-WW12 56–236) were amplified from a purchased DNA fragment (IDT) and cloned using NcoI and KpnI restriction sites into a pETM11 vector encoding 6xHis and TEV cleavage site as a N-terminal tag. SF1 (Pro A 410–468, Pro B 468–539, Pro C 539–594, Pro D 594–639, Pro BC 468–594, Pro CD 539–639, Pro BCD 468–639 and Pro ABCD 410–639) and SF3A1 (Middle Pro 364–413 and C-ter Pro 552–683) constructs were prepared in a similar manner using a pET24 vector with a 6xHis, GB1 and TEV cleavage site as N-terminal fusion cassette. 16-mer SF1 constructs (Table 1) and polyproline peptides (P6, P8, P10, P13, P16, P19, P22, P25, and P29) were cloned in the same pET24 vector with GB1 tag by direct ligation of purchased oligonucleotides (Eurofins). All peptide sequences contained N and C-terminal common residues to avoid boundary effects on binding: TEVsite-GAMSGS-peptide-SGSN. Mutants of PRPF40A WW12 and N-ext-WW12 constructs were prepared by site-directed mutagenesis. The truncated version of PRPF40A WW12 (141-217) was a gift from Dr. María Macías (IRB, Spain). All used oligonucleotides were purchased from Eurofins Genomics and are shown in Supplementary Table 6.
Resuspended cell pellets in 20 mM Tris pH 8.0, 500 mM NaCl, 10 mM imidazole, 0.5 mM TCEP, and protease inhibitors mix (SERVA) were lysed by cell disruption in a French press. Clear lysates, after centrifugation (at 18,000 g) and filtering, were loaded into Ni-NTA resin. The resin was then washed with 20 mM imidazole containing buffer, and the desired protein was eluted with 500 mM imidazole. PRPF40A constructs were then subjected to TEV protease treatment (homemade at a final concentration of ≈50 μg/ml), dialyzed overnight at 4 °C against an imidazole-free buffer, and then loaded again to Ni-NTA resin; desired digested proteins were obtained in the flow-through and wash fractions while uncleaved protein, TEV protease, and impurities remained bound to the resin. Cleaved PRPF40A proteins and GB1-tagged SF1, SF3A1, and polyproline constructs were further purified by size-exclusion chromatography on a HiLoad 16/60 Superdex 75 column (GE Healthcare) equilibrated with 20 mM sodium phosphate, pH 6.5, 100 mM NaCl and 1 mM DTT buffer. For the purification of PRPF40A WW12 in complex with SF1 peptide, cell pellets of recombinant expression for both proteins were mixed and processed together following the Ni-NTA—TEV digestion—reverse Ni-NTA—SEC-75 protocol; where the complex remained bound in a 1:1 stoichiometry throughout the whole purification (corroborated by NMR). Molecular weight of each sample was confirmed by mass spectrometry, purity was checked by PAGE-SDS, and protein concentrations were determined from the aromatic contribution to the UV absorbance spectra at 280 nm.
Experiments were conducted on a MicroCAl PEAQ-ITC (Malvern Instruments, UK) at 25 °C in 20 mM sodium phosphate pH 6.5 and 100 mM NaCl. PRPF40A was titrated into N-terminal GB1 tagged SF1 or polyproline constructs and vice versa with similar results. Protein concentrations in the cell were around 20–40 μM, while in the syringe ranged between 200 and 500 μM. Experiments were performed at least in duplicate with injections of 1.5 μL (0.4 μL for first point) separated by 150 s delays to recover thermal power baseline and continuous stirring in the cell (750 rpm) for correct mixing. The reference cell was filled with water in all experiments. Data were processed by removing the blank experiment (using digested GB1 fusion protein) and adjusted to one-site binding model with Malvern PEAQ-ITC Analysis software (Malvern Instruments, UK).

[4] = SF1 peptides, individual value 1 (replicate 1), read-out: Kd Values with WW12, individual value
[5] = SF1 peptides, individual value 2 (replicate 2), read-out: Kd Values with WW12, individual value
[6] = SF1 peptides, individual value 3 (replicate 3), read-out: Kd Values with WW12, individual value
[7] = SF1 peptides, individual value 4 (replicate 4), read-out: Kd Values with WW12, individual value

Substance: CCNT1;CCNT2
- Immunoprecipitation enrichment MUT vs WT, log2 FC [1]: 1.3354

Substance: CDK9
- Immunoprecipitation enrichment MUT vs WT, log2 FC [1]: 1.401

Substance: CDK12
- Immunoprecipitation enrichment MUT vs WT, log2 FC [1]: 1.215

Substance: EFTUD2
- Immunoprecipitation enrichment MUT vs WT, log2 FC [1]: 1.181

Substance: INF2
- Immunoprecipitation enrichment MUT vs WT, log2 FC [1]: 1.013

Substance: MPPPPMGMMPPPPPPP [SF1_470–485]
- displacement of the intramolecular N-terminal motifs (methyl signals Val 80, Val 129) [2]: cannot fully displace the intramolecular motifs
- N (sites) ([3]; WW tandem in the syringe): 0.90 ± 0.16 sites
- DH ([3]; as E1): -13.6 ± 0.813 kcal/mol
- Kd ([3]; 25 °C, 20 mM sodium phosphate pH 6.5, 100 mM NaCl, GB1-tagged polyproline or SF1 16-mer peptide in the cell, WW tandem in the syringe, one-site model, apparent Kd, average of at least duplicates, read-out: Kd): 13.9 ± 2.3 µM
- Kd [3, 4]: 10.9 µM
- Kd [3, 5]: 13.3 µM
- Kd [3, 6]: 14 µM
- Kd [3, 7]: 17.3 µM

Substance: SAE1
- Immunoprecipitation enrichment MUT vs WT, log2 FC [1]: 1.104

Substance: SF3A1 Middle Pro: GB1-tagged SF3A1 construct, residues 364–413, contains a PPLP motif (GB1-EGQKVPPPPETPMPPPLPPTPDQVIVRKDYDPKASKPLPPAPAPDEYLVS; also: His6 tag state not given here)
- DH ([3]; as E4): -27.25 ± 6.48 kcal/mol

Substance: SNRNP200
- Immunoprecipitation enrichment MUT vs WT, log2 FC [1]: 1.2097

Substance: TMVPLPPGVQPPLPPG [SF1_565–580, GB1-tagged 16-mer from the SF1 C-terminal region]
- N (sites) ([3]; WW tandem in the syringe): 1.06 ± 0.11 sites
- DH ([3]; as E1): -13.5 ± 1.96 kcal/mol
- Kd [3, 4]: 24 µM
- Kd [3, 5]: 37.8 µM
- Kd [3, 6]: 23.4 µM
- Kd [3, 7]: 36.5 µM

Substance: WIZ
- Immunoprecipitation enrichment MUT vs WT, log2 FC [1]: 1.529
